Results reported in patent US20190195897A1, “GLYCOSYLATED METABOLITES” (UNIVERSITEIT LEIDEN, priority 2015, published 2019).

Legend:
[1] = tested on: type 1 GD patients; assay: Plasma GlcChol in treated type 1 GD patients; type: in vivo, human; conditions: plasma specimens of type 1 GD patients
Experimental: FIG. 6C: Reduction in plasma GlcChol following Eliglustat treatment.
GlcChol levels in plasma of untreated symptomatic type 1 GD patients was determined as well as in NPC patients, carriers and healthy controls. […] The abnormalities are more pronounced when plasma GlcChol is related to Chol (FIG. 6B).
For quantitative analysis of GlcChol in samples of plasma, we developed a LC-MS/MS method using the MRM mode of the transitions mentioned above. Firstly, GlcChol was extracted from plasma from a healthy individual according the method of Bligh and Dyer (28) with a few modifications. 20 μL of plasma was pipetted in an Eppendorf tube (2 mL) and 20 μL of an internal standard solution, containing 0.1 pmol/μL of ^13C6-β-GlcChol in methanol, was added, followed by addition of 280 μL methanol and 150 μL of chloroform. After brief mixing, the sample was left at room temperature for 30 min, mixed occasionally and centrifuged for 10 min at 15700×g to spin down precipitated protein. The supernatant was transferred to an Eppendorf tube and 150 μL chloroform and 250 μL water were added to induce separation of phases. After centrifugation (5 min at 15700×g) the lower, hydrophobic phase was transferred to a clean Eppendorf tube and the upper phase was washed. by addition of 300 μL of chloroform. Lower phases were pooled and taken to dryness at 35° C. under a nitrogen stream. […]

[2] = tested on: COS7 cells; assay: GlcChol in cultured COS7 cells incubated with inhibitors of GBA2 and GBA; type: cell-based; conditions: for increased cellular GlcChol level in cells with overexpressed GCS: COS7 cells with overexpressed GCS, 2 days with inhibitor
Experimental: FIG. 4A: GlcChol (nmol/g protein) in COS cells without overexpression of enzymes (control), overexpressed GBA2, GCS and both (GBA2+GCS). Cells were incubated for 2 days with indicated inhibitors of GBA2 (AMP-DNM) and GBA (CBE).
The GlcChol content of cultured COS7 cells and factors influencing this was determined. First the impact of overexpressed GBA2 and GCS was studied.
COS-7 cells were cultured in Iscove's modified Dulbecco's medium (Life Technologies, Carlsbad, Calif., USA) supplemented with 5% fetal bovine serum (FBS; Bodinco, Alkmaar, The Netherlands) and in the presence of penicillin/streptomycin Liffe Technologies, Carlsbad, Calif., USA under 5% CO2 at 37° C. […] After 72 h, the medium was removed, cells were washed trice with ice-cold PBS and harvested by scraping in 25 mM potassium-phosphate buffer, pH 6.5.
COS-7 cells overexpressing GBA2 and/or GCS were homogenized by sonication on ice. Prior to extraction, 2 pmol of ^13C-labelled GlcChol in methanol (used as an internal standard) was added to 180 μL of homogenate. Next, lipids were extracted according to the method of Bligh and Dyer by addition of methanol, chloroform and water (1:1:0.9, v/v/v) and the lower phase was taken to dryness under a stream of nitrogen. Isolated Is lipids were purified by water/butanol extraction (1:1, v/v) and 8-GlcChol was analyzed by LC-MS as described before.

[3] = tested on: RAW 267 cells; assay: GlcChol in RAW 267 cells exposed to U18666A; type: cell-based; conditions: for increase of GlcChol in U18666A exposed cells: RAW 267 cells with U18666A, added agent present
Experimental: FIG. 5C: GlcChol (pmol/mg protein) in RAW 267 cells incubated with indicated concentration U18666A for 1 day in absence and presence of conduri.tol B-epoxide (CBE) inhibiting GBA.
FIG. 5D: GlcChol (pmol/mg protein) in RAW 267 cells incubated with 10 uM U18666A for 1 day and in subsequent absence and presence of 1 mM β-methylcyclodextrin (β-mCD) reducing intralysosomal cholesterol.

[4] = tested on: type 1 GD mice; assay: Treatment of mice with induced Gaucher disease with GCS inhibitor; plasma GlcCer and GlcChol; type: in vivo; conditions: treated with GCS inhibitor
From the text: FIG. 2E: Plasma GlcChol (nM) in normal, type 1 GD mice untreated and treated with GENZ 112638.
As shown in FIG. 2A and FIG. 2B, the GlcChol concentration was markedly lower in tissues of GBA2-deficient animals, especially in thymus. In contrast, in the GBA-deficient LIMP-2 KO mice no reduction in GlcChol, but rather a small increase in levels was observed (FIG. 2A, 2B). An increase in GlcChol was also observed in liver of mice with an induced GBA deficiency in the white blood cell lineage (FIG. 2C). Efficient correction of GBA deficiency by gene therapy led to a concomitant reduction of GlcChol (FIG. 2C).
The following mice were used for investigation: GD1 mice in which GBA-deficiency was induced (31, 32); mice with spontaneous Niemann Pick Type C (33) and Npc1−/− mice (34); LIMP2−/− mice (35), and GBA2 −/− mice (22). Animals were sacrificed and tissue were immediately frozen and stored at −80° C.
For quantitative analysis of GlcChol in samples of plasma, we developed a LC-MS/MS method using the MRM mode of the transitions mentioned above. Firstly, GlcChol was extracted from plasma from a healthy individual according the method of Bligh and Dyer (28) with a few modifications. […]

CCCCN1C[C@H](O)[C@@H](O)[C@H](O)[C@H]1CO [Zavesca]
plasma GlcChol following treatment [1]: not

OC[C@@H]1[C@@H](O)[C@H](O)[C@@H](O)CN1CCCCCOCC12CC3CC(CC(C3)C1)C2 [AMP-DNM, N-(5-adamantane-1-yl-methoxy-pentyl)-deoxynojirimycin]
increased cellular GlcChol level in cells with overexpressed GCS [2]: the elevation in GlcChol was prevented
cellular GlcChol ([2]; COS7 cells, low nanomolar inhibitor, 2 days): reduced cellular GlcChol

β-methylcyclodextrin [B-methyl-cyclodextrin]
increase of GlcChol in U18666A exposed cells [3]: prevented

CCCCCCCC(=O)N[C@H](CN1CCCC1)[C@H](O)c1ccc2c(c1)OCCO2 [GENZ 112638]
elevated plasma GlcChol [4]: minor, not statistically significant, reduction
plasma GlcCer [4]: partial reduction

CCCCCCCC(=O)N[C@H](CN1CCCC1)[C@H](O)c1ccc2c(c1)OCCO2 [Eliglustat]
plasma GlcChol following treatment [1]: prominent reduction

O[C@H]1[C@H](O)[C@@H](O)[C@@H]2O[C@@H]2[C@@H]1O (racemic) [CBE, Conduritol B epoxide]
increase of GlcChol in U18666A exposed cells [3]: prevented completely
increased cellular GlcChol level in cells with overexpressed GCS [2]: did hardly diminish

CCN(CC)CCO[C@H]1CC[C@@]2(C)C(=CC[C@@H]3[C@@H]2CC[C@]2(C)C(=O)CC[C@@H]32)C1 [U18666A]
GlcChol in cells on induction of lysosomal cholesterol accumulation ([3]; RAW 267 cells, 1 day): rapid increase
